Assay results: patent publication US11633378B2, “Methods and compositions for delivering mycophenolic acid active agents to non-human mammals” (OKAVA PHARMACEUTICALS, INC., priority 2017, dated 2023)
Read-outs that look alike come from different tables or passages of the source.

Assay: Study 1: single dose cross-over pharmacokinetics, oral vs intracolonic Na.MPA
Set-up: species or system male beagle dogs
Conditions: dog, in vivo
Method: Two single dose cross-over studies were conducted using a canine model (male beagle dogs) to evaluate the potential of an enteric coated-extended release sodium mycophenolate formulation (“EC-ER-Na.MP”). In a first cross-over study, the pharmacokinetics of MPA and its metabolites (MPAG and AcMPAG) following oral dosing of 180 mg of EC-Na.MPA was compared with intracolonic (IC) administration of Na.MPA. In a second cross-over study, 270 mg of an EC-ER-Na.MPA formulation was administered in the both fed and fasted states and pharmacokinetics were compared with oral administration of 10 mg/kg MMF in the fasted state. Both studies were conducted by Absorption Systems (San Diego, Calif.).
Study 1: For three days prior to IC dosing, dogs (n=5) were offered a soft diet consisting of canned wet food (Pedigree® Choice Cuts). Otherwise, the dogs were offered their standard diet (LabDiet 5006 laboratory canine diet). Prior to each dosing event, the dogs were fasted for 12 hours prior to dosing until 4 hours post-dose, when food was returned. Animals had free access to water throughout the study. Prior to IC dosing, each dog was given a non-stimulant enema approximately 1 hour prior to dosing to remove feces from the colon. Prior to PO dosing, each dog (n=5) was pre-treated with an intramuscular dose of pentagastrin (6 μg/kg) approximately 30 minutes prior to dosing. Capsules were administered by placement in the back of the throat followed by a 10 mL flush with water.
Each dog received a total dose of 180 mg of MPA for each dose. For IC dosing, MPA was delivered as a solution via an endoscope, and for PO dosing each dog received a single Myfortic® 180 mg enteric coated capsule. Following administration, blood samples were collected up to 24 hours post-dose. Plasma concentrations of MPA, MPAG, and AcMPAG were determined with a qualified LC-MS/MS method, and pharmacokinetic parameters were determined with WinNonlin v.6.4 software.

With COc1c(C)c2c(c(O)c1C/C=C(\C)CCC(=O)O)C(=O)OC2 [MPA, Mycophenolic acid] the Cmax (male, beagle, 180 mg) was 29500 ± 12600 ng/mL, the “MPA Cmax” value (male, beagle, 180 mg) was 29460 ng/mL and the half-life (male, beagle, 180 mg) was 5.55 ± 1.77 h. The Cmax (male, beagle, po, 180 mg) was 27300 ± 12000 ng/mL, the “MPA Cmax” value (male, beagle, po, 180 mg) was 27320 ng/mL and the half-life (male, beagle, po, 180 mg) was 4.49 h.

With COc1c(C)c2c(c(O)c1C/C=C(\C)CCC(=O)O)C(=O)OC2 [Na•MPA, sodium mycophenolate] the “MPA:metabolite ratios compared with oral MMF or enteric-coated Na.MPA” value was “higher MPA:metabolite ratios”, the MRT last (male beagle dogs, plasma, ORAL 180 mg (Myfortic enteric coated capsule), single dose, fasted, read-out: MPA MRTlast) was 2.86 h and the AUC(0-inf) (male, beagle, 180 mg) was 31900 ng·h/mL. For the same compound, the AUC(0-t) (male, beagle, 180 mg) was 31000 ng·h/mL, the “MPA Cmax” value (male, beagle, 180 mg) was 29460 ng/mL and the “MPA t1/2” value (male, beagle, 180 mg) was 5.55 h. The “MPA/AcMPAG Ratio (AUClast)” value (male, beagle, 180 mg) was 171.19, the “MPA/MPAG Ratio (AUC∞)” value (male, beagle, 180 mg) was 2.45 and the MRT last (male, beagle, 180 mg) was 2.76 h. The Tmax (male, beagle, 180 mg) was 0.23 h, the AUC(0-inf) (male, beagle, po, 180 mg) was 45700 ng·h/mL and the AUC(0-t) (male, beagle, po, 180 mg) was 36400 ng·h/mL. For the same compound, the “MPA Cmax” value (male, beagle, po, 180 mg) was 27320 ng/mL, the “MPA t1/2” value (male, beagle, po, 180 mg) was 4.49 h and the “MPA/AcMPAG Ratio (AUClast)” value (male, beagle, po, 180 mg) was 88.40. For the same compound, the “MPA/MPAG Ratio (AUClast)” value (male, beagle, po, 180 mg) was 1.42, the “MPA/MPAG Ratio (AUC∞)” value (male, beagle, po, 180 mg) was 1.29 and the Tmax (male, beagle, po, 180 mg) was 1 h.
